Data: patent publication US7118885B2, “Nucleic acid encoding vitamin D receptor related polypeptide” (Pfizer Inc., priority 1997, dated 2006)

Key:
VDRRg = target: T1, VDRRg (Homo sapiens, UniProt O75469); assay: Similar reporter assays as used in WO 96/22390; type: cell-based; conditions: data not shown
T1 construct: expressed in transfected cells
T1 sequence (O75469 1-434): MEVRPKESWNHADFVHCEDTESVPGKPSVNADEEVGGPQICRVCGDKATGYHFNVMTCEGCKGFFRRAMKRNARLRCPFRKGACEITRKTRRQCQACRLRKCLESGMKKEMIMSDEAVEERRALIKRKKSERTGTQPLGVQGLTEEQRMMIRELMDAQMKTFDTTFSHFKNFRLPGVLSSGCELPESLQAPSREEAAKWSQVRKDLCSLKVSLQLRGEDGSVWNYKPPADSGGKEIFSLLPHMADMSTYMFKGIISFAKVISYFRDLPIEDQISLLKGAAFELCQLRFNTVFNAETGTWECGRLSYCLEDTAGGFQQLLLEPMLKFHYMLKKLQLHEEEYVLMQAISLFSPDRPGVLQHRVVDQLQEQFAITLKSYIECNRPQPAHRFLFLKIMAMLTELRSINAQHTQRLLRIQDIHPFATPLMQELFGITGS

[1] = target: T2, GAL4-DBD/VDR-LBD fusion protein (Homo sapiens, UniProt P11473); assay: Transient co-transfection of CV-1 cells, GAL4-DBD/VDR-LBD with GAL4-luciferase reporter; type: cell-based; conditions: vitamin D3 1 μM, 48 hours
T2 construct: fusion proteins of the GAL4-DBD fused to the LBD of either the VDR or the VDRR; expressed in transfected cells; host or cells: CV-1 cells
T2 sequence (P11473 127-423 limits assumed): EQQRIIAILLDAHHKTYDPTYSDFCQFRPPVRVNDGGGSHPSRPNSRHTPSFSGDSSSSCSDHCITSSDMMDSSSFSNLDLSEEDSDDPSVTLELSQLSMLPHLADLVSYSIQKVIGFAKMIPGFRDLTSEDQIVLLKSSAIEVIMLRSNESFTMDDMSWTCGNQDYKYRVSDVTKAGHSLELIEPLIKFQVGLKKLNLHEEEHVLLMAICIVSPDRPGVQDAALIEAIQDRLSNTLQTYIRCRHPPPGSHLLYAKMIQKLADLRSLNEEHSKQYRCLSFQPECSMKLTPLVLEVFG
Description: (§1) Transient transfections were performed to analyze if vitamin D3 activate the VDRRγ polypeptide. To this end, transient co-tansfections of CV-1 cells were performed with expression plasmids encoding fusion proteins of the GAL4-DBD fused to the LBD of either the VDR or the VDRR together with a reporter-plasmid containing five GAL4 responsive elements upstream of the luciferase gene. After transfection, cells were treated with vehicle (DMSO) alone or with vitamin D3 for 48 hours followed by harvesting of the cells and measurement of the luciferase activity in cell extracts.

[2] = target: T3, GAL4-DBD/VDRRγ-LBD fusion protein (Homo sapiens, UniProt O75469); assay: Transient co-transfection of CV-1 cells, GAL4-DBD/VDRRγ-LBD with GAL4-luciferase reporter; type: cell-based; conditions: vitamin D3 1 μM, 48 hours
T3 construct: fusion proteins of the GAL4-DBD fused to the LBD of either the VDR or the VDRR; expressed in transfected cells; host or cells: CV-1 cells
T3 sequence (O75469 146-433 limits assumed): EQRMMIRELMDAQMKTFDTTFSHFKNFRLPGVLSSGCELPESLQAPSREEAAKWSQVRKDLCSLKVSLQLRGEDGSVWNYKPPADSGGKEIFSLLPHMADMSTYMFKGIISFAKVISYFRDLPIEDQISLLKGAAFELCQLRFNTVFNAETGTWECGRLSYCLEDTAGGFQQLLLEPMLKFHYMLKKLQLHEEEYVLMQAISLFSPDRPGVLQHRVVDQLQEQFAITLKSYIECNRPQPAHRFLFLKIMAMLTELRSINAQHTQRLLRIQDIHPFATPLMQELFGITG
Description: as §1

VDRRγ = target: T4, VDRRγ (Homo sapiens, UniProt O75469); assay: VDRRγ reporter gene assay in transiently transfected Caco-2 (TC7) cells
T4 sequence (O75469 1-434): T1 sequence (O75469 1-434)
Description: For identifying activators or ligands for VDRRγ, a library of substances structurally biased towards different classes of activators and ligands for nuclear receptors were tested. The activation of VDRRγ was analyzed in a reporter gene assay in transiently Caco-2 (TC7) cells (Carriere et al, 1994).

Structure (SMILES): CCCCOC(=O)c1ccc(N)cc1 [butyl 4-NH2 Benzoate]
- activation of VDRRg (VDRRg): did not activate

Structure (SMILES): C=C1CC[C@H](O)C/C1=C/C=C1\CCC[C@]2(C)[C@@H]([C@H](C)CCCC(C)C)CC[C@@H]12 [vitamin D3]
- transactivation of GAL4-DBD/VDR-LBD (luciferase activity) [1]: transactivate
- transactivation of GAL4-DBD/VDRRγ-LBD (luciferase activity) [2]: not

Structure (SMILES): CC(=O)[C@H]1CC[C@H]2[C@@H]3CC[C@@H]4CC(=O)CC[C@]4(C)[C@H]3CC[C@]12C [5β-pregnane-3,20-dione]
- activation of VDRRγ (in words) (VDRRγ; Caco-2 (TC7) cells, FIG. 10): efficient activation

Structure (SMILES): CC(=O)[C@H]1[C@H](C#N)C[C@H]2[C@@H]3CC=C4C[C@@H](O)CC[C@]4(C)[C@H]3CC[C@@]21C [PCN, pregnenolone 16α-carbonitrile]
- activation of VDRRγ (in words) (VDRRγ; Caco-2 cells, 10 μM, FIG. 11): not activated
- activation of human VDRRγ polypeptides (summary statement) (VDRRγ; VDRRγ-1 and VDRRγ-2, no concentration given): not activated

Structure (SMILES): CC(=O)[C@H]1CC[C@H]2[C@@H]3CC[C@H]4CC(=O)CC[C@]4(C)[C@H]3CC[C@]12C [5α-pregnane-3,20-dione]
- activation of VDRRγ (in words) (VDRRγ; Caco-2 (TC7) cells, FIG. 10): did not activate

Structure (SMILES): CC#C[C@]1(O)CC[C@H]2[C@@H]3CCC4=CC(=O)CCC4=C3[C@@H](c3ccc(N(C)C)cc3)C[C@@]21C [RU486]
- increase in VDRRγ mediated reporter gene activity (VDRRγ): slight increase (two fold)
